The subject of data set [1] is NCI-H1975. In words: cells. To be noted: Homo sapiens, NCI-H1975, 72 h.
Description: Cytotoxicity against human NCI-H1975 cells after 72 hrs by MTT assay
The subject of data set [2] is PC-9. The data set can be described thus: Cytotoxicity against human PC9 cells after 72 hrs by MTT assay. In kind it is cell-based. The note with it: PC-9, 72 h. (In general: Tetrazolium dyes change colour on reduction, which living cells bring about.)
The subject of data set [3] is HepG2. The data set can be described thus: cells. To be noted: Homo sapiens, HepG2, 72 h.
Description: Cytotoxicity against human HepG2 cells after 72 hrs by MTT assay
Data set [4] addresses T1, Acetylcholinesterase (Homo sapiens, UniProt P22303). The data set can be described thus: Inhibition of AChE (unknown origin) using acetylthiocholine iodide as substrate preincubated for 20 mins followed by substrate addition and measured every 30 secs for 1 hr by Ellman's assay.
For data set [5], the system named is RAW264.7. The data set can be described thus: Anti-inflammatory activity in mouse RAW264.7 cells assessed as reduction in LPS-induced IL-6 production after 48 hrs by ELISA. Format: functional, cell-based. The note with it: RAW264.7, 48 h. A general note: In an ELISA, binding on a coated surface is turned into a signal by an enzyme label.
Data set [6] has as its system Jurkat. The data set can be described thus: Immunosuppressive activity in human Jurkat cells assessed as reduction in PHA + PMA-induced IL-2 production at 20 uM after 48 hrs by ELISA. Format: functional, cell-based.
The subject of data set [7] is Jurkat. The data set can be described thus: cells. To be noted: Homo sapiens, 48 h.
Description: Immunosuppressive activity in human Jurkat cells assessed as reduction in PHA + PMA-induced IL-2 production after 48 hrs by ELISA
In data set [8] the test system is RAW264.7. In words: Anti-inflammatory activity in mouse RAW264.7 cells assessed as reduction in LPS-induced TNF-alpha production after 48 hrs by ELISA. In kind it is functional, cell-based. The note with it: RAW264.7, 48 h.
Data set [9] concerns the target T1, Acetylcholinesterase. In words: Inhibition of AChE (unknown origin) at 250 uM using acetylthiocholine iodide as substrate preincubated for 20 mins followed by substrate addition and measured every 30 secs for 1 hr by Ellman's assay. (In general: In Ellman's method for cholinesterases, released thiocholine reacts with DTNB.)
The test system of data set [10] is PC-9. The data set can be described thus: Cytotoxicity against human PC9 cells at 80 uM after 72 hrs by MTT assay. In kind it is cell-based. The note with it: pc-9, 72 h.
For data set [11], the system named is NCI-H1975. In words: Cytotoxicity against human NCI-H1975 cells at 80 uM after 72 hrs by MTT assay. Format: cell-based. To be noted: nci-h1975, 72 h.
The subject of data set [12] is HepG2. In words: Cytotoxicity against human HepG2 cells at 80 uM after 72 hrs by MTT assay. To be noted: hepg2, 72 h. In kind it is cell-based.

Calls of active or inactive are those of the source. The calls are words filed in the database; no cut-off is given here.

T1 sequence (P22303 whole entry): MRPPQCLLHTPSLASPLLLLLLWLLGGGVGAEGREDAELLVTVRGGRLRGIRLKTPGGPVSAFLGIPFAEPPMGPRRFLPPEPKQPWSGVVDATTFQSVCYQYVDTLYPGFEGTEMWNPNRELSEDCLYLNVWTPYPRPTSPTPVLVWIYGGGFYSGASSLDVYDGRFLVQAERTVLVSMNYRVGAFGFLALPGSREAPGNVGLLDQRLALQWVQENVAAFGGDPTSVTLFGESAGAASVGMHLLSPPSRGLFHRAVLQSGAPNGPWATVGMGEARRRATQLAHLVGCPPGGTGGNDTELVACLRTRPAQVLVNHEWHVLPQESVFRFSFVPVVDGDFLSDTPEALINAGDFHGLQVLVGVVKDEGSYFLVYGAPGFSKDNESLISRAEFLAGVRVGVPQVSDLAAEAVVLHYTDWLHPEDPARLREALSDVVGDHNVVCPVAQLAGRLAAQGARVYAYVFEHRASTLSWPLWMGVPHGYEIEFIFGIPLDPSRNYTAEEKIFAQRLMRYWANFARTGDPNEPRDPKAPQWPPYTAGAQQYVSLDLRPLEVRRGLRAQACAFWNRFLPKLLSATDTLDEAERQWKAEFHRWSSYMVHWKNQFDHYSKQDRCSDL

In general, IC50 refers to the concentration needed to halve the response being measured. For the molecule `CC(=O)O[C@H]1C(=O)[C@@]2(C)[C@H]([C@H](OC(=O)c3ccccc3)[C@]3(O)C[C@H](OC(=O)[C@H](O)[C@@H](NC(=O)c4ccccc4)c4ccccc4)C(C)=C1C3(C)C)[C@]1(OC(C)=O)CO[C@@H]1C[C@@H]2O` [PACLITAXEL], the figures for the IC50 in the data set with NCI-H1975 [1], with PC-9 [2] and in the data set with HepG2 [3] were 3.9 µM, 3.7 µM and 10.3 µM, respectively.

As a reminder, the inhibition is the drop in the measured response relative to a control, in per cent. For the molecule `COc1ccc(-c2cc(=O)c3c(O)c(OC)c(O)cc3o2)cc1` [PECTOLINARIGENIN], the 50% inhibitory concentration (IC50) is 76.6 µM in the data set with NCI-H1975 [1]; over 250 µM on Acetylcholinesterase [4]; over 80 µM in the data set on PC-9 [2]; over 20 µM with RAW264.7 [5]; over 20 µM in the data set with Jurkat [7]; 18.1 µM with HepG2 [3]. The IC50 in the data set with RAW264.7 [8] is over 20 µM. For the same molecule, in the data set with Jurkat [6], the inhibition entry was “inactive”. In addition, the inhibition against Acetylcholinesterase [9] turned out to be 37.8%.

On to `COc1ccc(-c2cc(=O)c3cc(OC)c(O)c([C@@H]4CCC(=O)N4)c3o2)cc1`, for which the IC50 with NCI-H1975 [1] is over 80 µM; against Acetylcholinesterase [4] it was 68 µM; in the data set on PC-9 [2], over 80 µM; with RAW264.7 [5], over 20 µM; with Jurkat [7], over 20 µM; in the data set on HepG2 [3] it was over 80 µM. Further, the half-inhibitory concentration (IC50) in the data set on RAW264.7 [8] was over 20 µM. In addition, the Activity entry in the data set on PC-9 [10], in the data set on NCI-H1975 [11] and with HepG2 [12] was “Non-Toxic” in each case.

`C[C@@H]1C[C@H]2[C@@H]3CCC4=CC(=O)C=C[C@]4(C)[C@@]3(F)[C@@H](O)C[C@]2(C)[C@@]1(O)C(=O)CO` [DEXAMETHASONE]: the 50% inhibitory concentration (IC50) with RAW264.7 [5] amounted to 9.4 µM; in the data set on RAW264.7 [8], 1.2 µM.

On to `COc1ccc(-c2cc(=O)c3cc(OC)c(O)c([C@H]4CCC(=O)N4)c3o2)cc1`, for which the IC50 in the data set on NCI-H1975 [1] was over 80 µM; at Acetylcholinesterase [4], 18.3 µM; in the data set with PC-9 [2], over 80 µM; in the data set with RAW264.7 [5], over 20 µM; in the data set on Jurkat [7] it was 16.5 µM; in the data set on HepG2 [3], 52.9 µM. The IC50 with RAW264.7 [8] is over 20 µM.

The values above are taken from ChEMBL document CHEMBL4308916, “Leucoflavonine, a new bioactive racemic flavoalkaloid from the leaves of Leucosceptrum canum” (Bioorg Med Chem, 2019).
